Measured values taken from patent US9700047B2, “Macrocyclic picolinamides as fungicides” (Dow AgroSciences LLC, priority 2014, dated 2017).
Like-named read-outs stand apart in the source and are kept apart here.

Tested on: Puccinia triticina; Synonym: Puccinia recondita f sp. tritici
Assay: Wheat brown rust (PUCCRT) disease control on wheat seedlings
Assay type: in vivo
Conditions: for pest or weed control at 100 ppm: High Volume activity at 100 ppm; for pest or weed control at 121.5 g/ha: Low Volume activity at 121.5 g/H
Method: All fungicides were evaluated using the aforementioned method for their activity vs. all target diseases, unless stated otherwise. Wheat leaf blotch and brown rust activity were also evaluated using track spray applications, in which case the fungicides were formulated as EC formulations, containing 0.1% Trycol 5941 in the spray solutions. Wheat plants (variety Yuma) were grown from seed in a greenhouse in 50% mineral soil/50% soil-less Metro mix until the first leaf was fully emerged, with 7-10 seedlings per pot. These plants were inoculated with an aqueous spore suspension of Puccinia triticina either prior to or after fungicide treatments. […] The plants were then transferred to a greenhouse set at 24° C. for disease to develop. Fungicide formulation, application and disease assessment followed the procedures as described in the Example A.

[1] = 24 h, 1 Day Protectant, read-out: PUCCRT 1DP % Control rating
[2] = 72 h, 3 Day Curative, read-out: PUCCRT 3DC % Control rating

Structure (SMILES) | pest or weed control at 100 ppm [1] [%] | pest or weed control at 121.5 g/ha [1] [%] | pest or weed control at 100 ppm [2] [%] | pest or weed control at 121.5 g/ha [2] [%]
CCCC[C@@H]1[C@@H](Cc2ccccc2)CCC[C@H](NC(=O)c2nccc(OC)c2OC(C)=O)C(=O)O[C@H]1C [Compound 1, 2-(((3S,7R,8R,9S)-7-benzyl-8-butyl-9-methyl-2-oxooxonan-3-yl)carbamoyl)-4-methoxypyridin-3-yl acetate] | > 70 | > 70 | > 70 | < 70
CCCC[C@@H]1[C@@H](Cc2ccccc2)CCC[C@H](NC(=O)c2nccc(OC)c2OCOC(C)=O)C(=O)O[C@H]1C [Compound 2, ((2-(((3S,7R,8R,9S)-7-benzyl-8-butyl-9-methyl-2-oxooxonan-3-yl)carbamoyl)-4-methoxypyridin-3-yl)oxy)methyl acetate] | > 70 | > 70 | > 70 | < 70
COc1ccnc(C(=O)N[C@H]2CCC[C@H](CCC(C)C)[C@@H](Cc3ccccc3)[C@H](C)OC2=O)c1OC(C)=O [Compound 4] |  | > 70 |  | < 70
COc1ccnc(C(=O)N[C@H]2CCC[C@H](Cc3ccccc3)[C@@H](Cc3ccccc3)[C@H](C)OC2=O)c1OC(C)=O [Compound 5] |  | > 70 |  | > 70
COc1ccnc(C(=O)N[C@H]2CCC[C@H](Cc3ccccc3)[C@@H](Cc3ccccc3)[C@H](C)OC2=O)c1OCOC(C)=O [Compound 6] |  | > 70 |  | > 70
COc1ccnc(C(=O)N[C@H]2CCC[C@H](Cc3ccccc3)[C@@H](Cc3ccccc3)[C@H](C)OC2=O)c1OCOC(=O)C(C)C [Compound 7, ((2-(((3S,7R,8R,9S)-7,8-dibenzyl-9-methyl-2-oxooxonan-3-yl)carbamoyl)-4-methoxypyridin-3-yl)oxy)methyl isobutyrate] |  | > 70 |  | > 70
CCOCC(=O)OCOc1c(OC)ccnc1C(=O)N[C@H]1CCC[C@H](Cc2ccccc2)[C@@H](Cc2ccccc2)[C@H](C)OC1=O [Compound 8, ((2-(((3S,7R,8R,9S)-7,8-dibenzyl-9-methyl-2-oxooxonan-3-yl)carbamoyl)-4-methoxypyridin-3-yl)oxy)methyl 2-ethoxyacetate] |  | > 70 |  | < 70
COc1ccnc(C(=O)N[C@H]2CCC[C@H](Cc3ccccc3)[C@@H](C3CCCC3)[C@H](C)OC2=O)c1OC(C)=O [Compound 9] |  | > 70 |  | < 70
COc1ccnc(C(=O)N[C@H]2CCC[C@H](Cc3ccccc3)[C@@H](C3CCCC3)[C@H](C)OC2=O)c1OCOC(C)=O [Compound 10] |  | > 70 |  | > 70
COc1ccnc(C(=O)N[C@H]2CCC[C@H](Cc3ccc(Cl)cc3)[C@@H](CC(C)C)[C@H](C)OC2=O)c1OCOC(C)=O [Compound 12] |  | > 70 |  | < 70
COc1ccnc(C(=O)N[C@H]2CCC[C@H](Cc3ccc(Cl)cc3)[C@@H](CC(C)C)[C@H](C)OC2=O)c1OC(C)=O [Compound 13] |  | > 70 |  | < 70
COc1ccnc(C(=O)N[C@H]2CCC[C@H](Cc3ccccc3)[C@@H](CC(C)C)[C@H](C)OC2=O)c1OCOC(C)=O [Compound 14] |  | > 70 |  | < 70
COc1ccnc(C(=O)N[C@H]2CCC[C@H](Cc3ccccc3)[C@@H](CCc3ccccc3)[C@H](C)OC2=O)c1OCOC(C)=O [Compound 15] |  | > 70 |  | < 70
CCOCC(=O)OCOc1c(OC)ccnc1C(=O)N[C@H]1CCC[C@H](Cc2ccccc2)[C@@H](CCc2ccccc2)[C@H](C)OC1=O [Compound 16] |  | > 70 |  | > 70
COc1ccnc(C(=O)N[C@H]2CCC[C@H](Cc3ccccc3)[C@@H](CCc3ccccc3)[C@H](C)OC2=O)c1OCOC(=O)C(C)C [Compound 17] |  | > 70 |  | < 70
COc1ccnc(C(=O)N[C@H]2CCC[C@H](Cc3ccccc3)[C@@H](CCc3ccccc3)[C@H](C)OC2=O)c1OC(C)=O [Compound 18] |  | < 70 |  | < 70
COc1ccnc(C(=O)N[C@H]2CCC[C@H](Cc3ccc(Cl)cc3)[C@@H](Cc3ccccc3)[C@H](C)OC2=O)c1OCOC(C)=O [Compound 19] |  | > 70 |  | < 70
CCOCC(=O)OCOc1c(OC)ccnc1C(=O)N[C@H]1CCC[C@H](Cc2ccc(Cl)cc2)[C@@H](Cc2ccccc2)[C@H](C)OC1=O [Compound 20] |  | > 70 |  | > 70
COc1ccnc(C(=O)N[C@H]2CCC[C@H](Cc3ccc(Cl)cc3)[C@@H](Cc3ccccc3)[C@H](C)OC2=O)c1OC(C)=O [Compound 21] |  | > 70 |  | < 70
COc1ccnc(C(=O)N[C@H]2CCC[C@H](Cc3ccc(C(F)(F)F)cc3)[C@@H](CC(C)C)[C@H](C)OC2=O)c1OC(C)=O [Compound 22] |  | > 70 |  | < 70

Structure (SMILES) | pest or weed control at 100 ppm [1] [%] | pest or weed control at 121.5 g/ha [1] [%] | pest or weed control at 100 ppm [2] [%] | pest or weed control at 121.5 g/ha [2] [%]
COc1ccnc(C(=O)N[C@H]2CCC[C@H](Cc3ccc(C(F)(F)F)cc3)[C@@H](CC(C)C)[C@H](C)OC2=O)c1OCOC(C)=O [Compound 23] |  | > 70 |  | < 70
COc1ccnc(C(=O)N[C@H]2CCC[C@H](Cc3ccc(C(F)(F)F)cc3)[C@@H](CC(C)C)[C@H](C)OC2=O)c1OCOC(=O)C(C)C [Compound 24] |  | < 70 |  | < 70
COc1ccnc(C(=O)N[C@H]2CCC[C@H](Cc3ccc(C(F)(F)F)cc3)[C@@H](Cc3ccccc3)[C@H](C)OC2=O)c1OC(C)=O [Compound 25] |  | < 70 |  | < 70
COc1ccnc(C(=O)N[C@H]2CCC[C@H](Cc3ccc(C(F)(F)F)cc3)[C@@H](Cc3ccccc3)[C@H](C)OC2=O)c1OCOC(C)=O [Compound 26] |  | > 70 |  | < 70
COc1ccnc(C(=O)N[C@H]2CCC[C@H](Cc3ccc(C(F)(F)F)cc3)[C@@H](Cc3ccccc3)[C@H](C)OC2=O)c1OCOC(=O)C(C)C [Compound 27] |  | > 70 |  | < 70
COc1ccnc(C(=O)N[C@H]2CCC[C@H](Cc3ccc(Cl)cc3)[C@@H](C3CCCC3)[C@H](C)OC2=O)c1OC(C)=O [Compound 28] |  | > 70 |  | < 70
COc1ccnc(C(=O)N[C@H]2CCC[C@H](Cc3ccc(Cl)cc3)[C@@H](C3CCCC3)[C@H](C)OC2=O)c1OCOC(C)=O [Compound 29] |  | > 70 |  | < 70
COc1ccnc(C(=O)N[C@H]2CCC[C@H](Cc3ccc(Cl)cc3)[C@@H](C3CCCC3)[C@H](C)OC2=O)c1OCOC(=O)C(C)C [Compound 30] |  | < 70 |  | < 70
CCOCC(=O)OCOc1c(OC)ccnc1C(=O)N[C@H]1CCC[C@H](Cc2ccc(Cl)cc2)[C@@H](C2CCCC2)[C@H](C)OC1=O [Compound 31] |  | > 70 |  | < 70
COc1ccnc(C(=O)N[C@H]2CCC[C@H](CCCc3ccccc3)[C@@H](CCc3ccccc3)[C@H](C)OC2=O)c1OCOC(C)=O [Compound 32] |  | > 70 |  | < 70
COc1ccnc(C(=O)N[C@H]2CCC[C@H](CCCc3ccccc3)[C@@H](CCc3ccccc3)[C@H](C)OC2=O)c1OC(C)=O [Compound 33] |  | < 70 |  | < 70
COc1ccnc(C(=O)N[C@H]2CCC[C@H](CCC(C)C)[C@@H](CCc3ccccc3)[C@H](C)OC2=O)c1OCOC(C)=O [Compound 34] |  | > 70 |  | < 70
CCOCC(=O)OCOc1c(OC)ccnc1C(=O)N[C@H]1CCC[C@H](CCC(C)C)[C@@H](CCc2ccccc2)[C@H](C)OC1=O [Compound 35] |  | > 70 |  | < 70
COc1ccnc(C(=O)N[C@H]2CCC[C@H](CCC(C)C)[C@@H](CCc3ccccc3)[C@H](C)OC2=O)c1OC(C)=O [Compound 36] |  | > 70 |  | < 70
CCC[C@H]1CCC[C@H](NC(=O)c2nccc(OC)c2OCOC(C)=O)C(=O)O[C@@H](C)[C@@H]1Cc1ccccc1 [Compound 37] |  | > 70 |  | > 70
CCC[C@H]1CCC[C@H](NC(=O)c2nccc(OC)c2OC(C)=O)C(=O)O[C@@H](C)[C@@H]1Cc1ccccc1 [Compound 38] |  | > 70 |  | > 70
COc1ccnc(C(=O)N[C@H]2CCC[C@H](Cc3ccc(C(F)(F)F)cc3)[C@@H](Cc3ccc(F)cc3)[C@H](C)OC2=O)c1OCOC(C)=O [Compound 39] |  | < 70 |  | < 70
COc1ccnc(C(=O)N[C@H]2CCC[C@H](Cc3ccc(C(F)(F)F)cc3)[C@@H](Cc3ccc(F)cc3)[C@H](C)OC2=O)c1OC(C)=O [Compound 40] |  | < 70 |  | < 70
COc1ccnc(C(=O)N[C@H]2CCC[C@H](Cc3ccc(C(F)(F)F)cc3)[C@@H](Cc3ccc(F)cc3)[C@H](C)OC2=O)c1OCOC(=O)C(C)C [Compound 41] |  | < 70 |  | < 70
